Experiment [1] is described as follows: Cytotoxicity against mouse BA/F3 cells overexpressing BCR-Abl T315I mutant. The class given is functional. Conditions: BaF3, read-out: LD50 (the source's name).
In experiment [2] the target is Tyrosine-protein kinase ABL1 (Mus musculus) (UniProt P00520). In words: Induction of translocation of cAbl in to mitochondria of mouse BA/F3 cells assessed as caspase9 cleavage. Conditions: BaF3.
Experiment [3] shares this target. Put plainly: Induction of translocation of cAbl in to mitochondria of mouse BA/F3 cells assessed as caspase 8 cleavage. Conditions: BaF3.
A short description of experiment [4]: Cytotoxicity against mouse BA/F3 cells. The class given is functional. Conditions: BaF3, read-out: LD50 (the source's name).
For experiment [5], the target named is Bcr/Abl fusion protein (Homo sapiens) (UniProt P00519+P11274). In words: Binding affinity to Bcr-Abl expressed in mouse BA/F3 cells at 5 uM. In kind it is cell-based. Conditions: BaF3.
Bcr/Abl fusion protein (Homo sapiens), sequence (P00519 whole entry, looked up, the tested form may be a part): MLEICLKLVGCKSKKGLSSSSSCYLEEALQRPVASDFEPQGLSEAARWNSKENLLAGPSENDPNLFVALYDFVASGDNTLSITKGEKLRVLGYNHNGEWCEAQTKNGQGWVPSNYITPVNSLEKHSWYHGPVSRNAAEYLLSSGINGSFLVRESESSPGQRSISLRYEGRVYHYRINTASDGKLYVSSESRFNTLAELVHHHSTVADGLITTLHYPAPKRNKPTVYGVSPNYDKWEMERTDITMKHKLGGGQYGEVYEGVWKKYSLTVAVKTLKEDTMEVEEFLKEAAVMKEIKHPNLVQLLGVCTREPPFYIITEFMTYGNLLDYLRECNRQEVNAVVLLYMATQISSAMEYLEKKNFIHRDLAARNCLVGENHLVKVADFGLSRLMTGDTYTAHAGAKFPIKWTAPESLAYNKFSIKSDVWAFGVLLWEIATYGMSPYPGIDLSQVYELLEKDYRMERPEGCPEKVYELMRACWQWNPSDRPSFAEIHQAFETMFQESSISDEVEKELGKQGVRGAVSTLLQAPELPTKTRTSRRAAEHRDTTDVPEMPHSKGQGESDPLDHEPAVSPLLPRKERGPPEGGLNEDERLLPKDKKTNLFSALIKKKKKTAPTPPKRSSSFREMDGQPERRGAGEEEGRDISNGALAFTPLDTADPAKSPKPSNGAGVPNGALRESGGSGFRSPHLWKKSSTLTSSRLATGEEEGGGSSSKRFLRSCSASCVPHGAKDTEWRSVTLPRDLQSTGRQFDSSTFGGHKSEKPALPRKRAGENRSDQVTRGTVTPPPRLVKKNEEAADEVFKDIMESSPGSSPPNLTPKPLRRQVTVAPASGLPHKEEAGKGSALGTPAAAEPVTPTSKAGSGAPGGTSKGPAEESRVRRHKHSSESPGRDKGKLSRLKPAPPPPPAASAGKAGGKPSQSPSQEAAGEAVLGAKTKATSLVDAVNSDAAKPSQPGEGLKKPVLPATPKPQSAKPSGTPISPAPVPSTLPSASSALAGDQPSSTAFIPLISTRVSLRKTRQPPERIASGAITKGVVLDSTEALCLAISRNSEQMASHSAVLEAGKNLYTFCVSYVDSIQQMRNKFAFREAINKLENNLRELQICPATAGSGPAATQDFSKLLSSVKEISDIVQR
Bcr/Abl fusion protein (Homo sapiens), sequence (P11274 whole entry, looked up, the tested form may be a part): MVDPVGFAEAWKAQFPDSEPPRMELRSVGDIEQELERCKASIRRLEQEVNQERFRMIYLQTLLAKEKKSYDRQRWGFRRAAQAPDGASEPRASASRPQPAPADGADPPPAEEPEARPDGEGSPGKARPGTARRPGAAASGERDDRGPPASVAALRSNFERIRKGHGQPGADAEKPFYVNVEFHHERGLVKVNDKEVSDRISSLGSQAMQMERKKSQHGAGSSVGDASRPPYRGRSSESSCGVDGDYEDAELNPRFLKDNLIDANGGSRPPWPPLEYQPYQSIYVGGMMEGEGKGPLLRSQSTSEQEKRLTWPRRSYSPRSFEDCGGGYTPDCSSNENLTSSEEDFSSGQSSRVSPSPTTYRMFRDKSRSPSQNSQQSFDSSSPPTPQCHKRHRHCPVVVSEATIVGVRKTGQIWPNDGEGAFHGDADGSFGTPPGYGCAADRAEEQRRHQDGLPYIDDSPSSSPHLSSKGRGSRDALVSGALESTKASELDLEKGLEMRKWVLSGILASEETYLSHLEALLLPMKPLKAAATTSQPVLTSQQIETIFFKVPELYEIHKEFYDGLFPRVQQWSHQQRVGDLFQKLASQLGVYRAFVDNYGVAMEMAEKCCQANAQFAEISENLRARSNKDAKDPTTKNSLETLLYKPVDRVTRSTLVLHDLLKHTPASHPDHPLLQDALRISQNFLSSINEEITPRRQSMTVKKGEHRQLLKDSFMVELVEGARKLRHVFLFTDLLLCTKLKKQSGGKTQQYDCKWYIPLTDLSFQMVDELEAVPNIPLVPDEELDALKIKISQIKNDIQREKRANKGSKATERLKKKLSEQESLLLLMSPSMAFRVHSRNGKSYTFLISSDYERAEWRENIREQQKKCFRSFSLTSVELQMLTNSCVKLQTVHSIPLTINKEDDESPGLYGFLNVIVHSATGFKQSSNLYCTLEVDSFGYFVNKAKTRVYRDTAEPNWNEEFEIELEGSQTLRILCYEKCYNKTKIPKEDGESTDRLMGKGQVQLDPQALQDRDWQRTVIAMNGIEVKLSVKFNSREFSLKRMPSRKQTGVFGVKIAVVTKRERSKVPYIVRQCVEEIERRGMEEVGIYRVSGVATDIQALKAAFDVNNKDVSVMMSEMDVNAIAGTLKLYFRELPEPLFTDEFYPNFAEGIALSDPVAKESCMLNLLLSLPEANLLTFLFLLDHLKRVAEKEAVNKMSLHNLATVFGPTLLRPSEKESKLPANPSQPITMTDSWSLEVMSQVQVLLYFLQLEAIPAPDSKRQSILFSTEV
In experiment [6] the target is Tyrosine-protein kinase ABL1 (Mus musculus) (UniProt P00520). Put plainly: Induction of translocation of cAbl in to mitochondria of mouse BA/F3 cells. Conditions: BaF3.
For experiment [7] the target is unchanged. Put plainly: Induction of nuclear translocation of cAbl of mouse BA/F3 cells. In kind it is cell-based. Conditions: BaF3.

Here are results for 1 compound from ChEMBL document CHEMBL1255204, “Identification of the first non-peptidic small molecule inhibitor of the c-Abl/14-3-3 protein-protein interactions able to drive sensitive and Imatinib-resistant leukemia cells to apoptosis” (2010).

Activity calls are given as the source filed them. No cut-off for these calls is given here.

Tyrosine-protein kinase ABL1 (Mus musculus), sequence (P00520 whole entry): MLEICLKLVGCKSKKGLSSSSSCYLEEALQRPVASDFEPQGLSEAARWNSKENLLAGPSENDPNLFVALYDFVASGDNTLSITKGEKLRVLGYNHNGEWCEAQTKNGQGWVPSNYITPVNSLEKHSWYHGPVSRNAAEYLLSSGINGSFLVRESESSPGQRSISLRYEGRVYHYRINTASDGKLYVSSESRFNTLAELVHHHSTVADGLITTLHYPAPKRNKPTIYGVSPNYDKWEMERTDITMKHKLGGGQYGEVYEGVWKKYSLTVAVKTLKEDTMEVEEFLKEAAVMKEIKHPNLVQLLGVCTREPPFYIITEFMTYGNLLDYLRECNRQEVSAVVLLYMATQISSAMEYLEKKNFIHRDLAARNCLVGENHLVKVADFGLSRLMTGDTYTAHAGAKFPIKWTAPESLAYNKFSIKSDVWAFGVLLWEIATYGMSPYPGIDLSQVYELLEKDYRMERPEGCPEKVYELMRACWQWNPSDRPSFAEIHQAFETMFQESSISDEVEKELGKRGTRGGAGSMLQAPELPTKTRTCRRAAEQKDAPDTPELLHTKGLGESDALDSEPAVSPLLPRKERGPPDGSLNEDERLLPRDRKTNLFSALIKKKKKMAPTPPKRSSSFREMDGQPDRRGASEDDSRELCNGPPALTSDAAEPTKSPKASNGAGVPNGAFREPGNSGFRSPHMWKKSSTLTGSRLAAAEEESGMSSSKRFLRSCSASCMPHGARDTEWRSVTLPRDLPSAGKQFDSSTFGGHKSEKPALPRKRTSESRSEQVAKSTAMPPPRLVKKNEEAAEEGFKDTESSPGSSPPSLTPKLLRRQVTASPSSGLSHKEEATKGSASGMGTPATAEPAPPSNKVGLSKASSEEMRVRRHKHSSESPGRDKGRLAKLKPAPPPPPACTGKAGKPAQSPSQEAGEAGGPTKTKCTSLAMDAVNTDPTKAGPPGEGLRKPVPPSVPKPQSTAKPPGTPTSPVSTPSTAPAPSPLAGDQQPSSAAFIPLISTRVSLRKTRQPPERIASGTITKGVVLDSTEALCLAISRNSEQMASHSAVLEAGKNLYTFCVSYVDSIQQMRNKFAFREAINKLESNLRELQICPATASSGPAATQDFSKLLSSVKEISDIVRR

Take `Cc1c(NC(=O)c2c(C(=O)O)cccc2C(=O)O)c(=O)n(-c2ccccc2)n1C`: the CC50 in experiment [1] amounted to 1470 nM; in experiment [4] it was 1040 nM. In addition, the outcome in experiment [2], in experiment [3], in experiment [5], in experiment [6] and in experiment [7] was Active.
